What was measured:
HepG2 = assay: Proliferation inhibition, HepG2 cell line; format: cell-based; conditions: Homo sapiens; HepG2 cells, 96 hours culture, cell viability detection; read-out: Antiproliferative IC50 HepG2
In short: (§1)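 Wnt-dependent proliferation in HepG2 and NCI-H929 cells, seeded at 4000 cells/well and pre-incubated 20-24 h at 37 °C. Cells were then exposed for 96 h to 3-fold serial dilutions (top final concentration 20 uM), and viability was read by signal intensity. IC50 was referenced to DMSO-only wells and cell-free wells.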

DU4475 = assay: Proliferation inhibition, Wnt mutant cell line DU4475; format: cell-based; conditions: Homo sapiens, DU-4475; DU4475, Wnt pathway-dependent, 96 hours; read-out: Antiproliferative IC50 DU4475
In short: (§2)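 1000 cells/well, 37° C/5% CO2, 20-24 h attach; 3-fold serial dilution, max final 20 uM; 96 h exposure. Promega viability readout, full wavelength mode. DMSO wells = positive ctrl, no-cell wells = negative ctrl; IC50 reported.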

Hela = assay: Proliferation inhibition, non-Wnt mutant control cell line Hela; format: cell-based; conditions: Homo sapiens, Wnt-independent control cell line, 96 hours, read-out: Antiproliferative IC50 Hela
Excerpt: The cell lines used in the experiment are Colo205 and DU4475 cell lines whose Wnt pathway is continuously activated and whose proliferation is Wnt pathway-dependent; while the BELA and RKO cell lines, whose Wnt pathway is not activated under normal circumstances and the proliferation is independent of Wnt pathway, as control cell lines. It is Judged that the inhibitory effect of the compound of the present invention on Wnt-dependent proliferation is not caused by other non-specific toxicity.
Treat the Colo205, Du4475, HELA and RKO cell lines cultured in their respective mediums in the logarithmic growth phase, collect the cells and prepare a uniform cell suspension of known concentration, and then add it to the 96-well cell culture plate Cell suspension, so that each well contains 1000 cells. Put it into a 5% CO2 incubator and incubate at 37° C. for 20-24 h. On the second day, the fully dissolved, 3-fold serially diluted compound was added to each cell culture well, so that the final maximum concentration in the cell culture well was 20 uM, and the culture was continued for 96 hours. In this test, Promega's cell viability detection test is used for detection. The more the cells proliferate, the stronger the final signal intensity will be. The detection instrument is SpectraMax, full wavelength mode. The wells only added with DMSO were used as positive control wells, and the wells that were not inoculated with cells were used as negative control wells. […] The IC50 value of cell proliferation inhibition was used to evaluate the inhibitory effect of the compound on the Wnt pathway and the toxic effect on normal cells (Table 2).

RKO = assay: Proliferation inhibition, non-Wnt mutant control cell line RKO; format: cell-based; conditions: Homo sapiens, Wnt-independent control cell line, 96 hours, read-out: Antiproliferative IC50 RKO
In short: as §2

[1] = tested on: Colo205-LUC-TCF/LEF M1 reporter cell line (Wnt pathway); assay: Colo205-LUC-TCF/LEF M1 reporter gene (luciferase) inhibition; format: cell-based; conditions: 4 hours incubation, luciferase readout
In short: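 Luminescent readout of TCF/LEF-regulated luciferase after a 4 h, 37° C compound exposure in a stable Colo205 reporter clone (10,000 cells/well). Serial 3-fold dilutions started at 20 uM; IC50 derived using DMSO-treated cells and no-cell wells as controls.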

Colo205 = assay: Proliferation inhibition, Wnt mutant cell line Colo205; format: cell-based; conditions: Homo sapiens, COLO 205; Colo205, Wnt pathway-dependent, 96 hours; read-out: Antiproliferative IC50 Colo205
In short: as §2

NCI-H929 = assay: Proliferation inhibition, NCI-H929 cell line; format: cell-based, human; conditions: Homo sapiens; NCI-H929 cells, 96 hours culture, cell viability detection; read-out: Antiproliferative IC50 NCI-H929
In short: as §1

Row | SMILES | IC50 (HepG2) [µM] | IC50 (Hela) [µM] | IC50 [1] [µM] | IC50 (Colo205) [µM] | IC50 (NCI-H929) [µM] | IC50 (DU4475) [µM] | IC50 (RKO) [µM]
1 | C[C@H]1C(=O)N2CCCc3nc(NCc4ccc(Oc5cnc(C(F)(F)F)nc5)nc4)nc(c32)N1C [91 (W221)] | 0.035 | > 10 | 0.028 | 0.031 | 0.065 | 0.024 | > 10
2 | CO[C@H](C)[C@H]1C(=O)N2CCCc3nc(NCc4ccc(Oc5ccc(C(F)(F)F)nc5)nc4)nc(c32)N1C [114 (W243), (S)-5-((R)-1-methoxyethyl)-4-methyl-2-(((6-((6-(trifluoromethyl)pyridin-3-yl)oxo)pyridin-3-yl)methyl)amino)-4,5,9,10-tetrahydro-6H,8H-pyrido[3,2,1-de]pteridin-6-one] | 0.037 | > 10 | 0.027 | 0.023 | 0.06 | 0.02 | > 10
3 | C[C@H]1Cn2ccc3nc(NCc4cnn(CC(F)(F)F)c4)nc(c32)N1C [80 (W104)] | 0.0093 | > 10 | 0.01 | 0.0246 |  | 0.0275 | > 10
4 | COC[C@H]1Cn2ccc3nc(NCc4cnn(Cc5ccc(C(F)(F)F)nc5)c4)nc(c32)N1C [68 (W49)] | 0.0044 | > 10 | 0.012 | 0.0082 |  | 0.0128 | > 10
5 | CN1c2nc(NCc3cnn(Cc4ccc(C(F)(F)F)nc4)c3)nc3ccn(c23)CC1CC(F)(F)F (centres unmarked) [87 (W136)] |  | 2.92 | 0.007 | 0.0067 |  | 0.0054 | 3.98
6 | C[C@H]1C(=O)N2CCCc3nc(NCc4ccc(Oc5ccnc(C(F)(F)F)c5)nc4)nc(c32)N1C [100 (W239)] |  | > 10 | 0.05 | 0.059 |  | 0.052 | > 10
7 | C[C@H]1Cn2ccc3nc(NCc4ccc(Oc5ccccc5)cc4)nc(c32)N1C [67 (W46)] |  | 1.09 | 0.034 | 0.0604 |  | 0.0625 | 1.19
8 | C[C@H]1Cn2ccc3nc(NCc4ccc(Oc5ccc(C(F)(F)F)nc5)nc4)nc(c32)N1C [77 (W86)] |  | 2.92 | 0.008 | 0.0047 |  | 0.0051 | 4.01
9 | CN1c2nc(NCc3cnn(Cc4ccc(C(F)(F)F)nc4)c3)nc3ccn(c23)C[C@@H]1C1CC1 [75 (W77)] |  | 3.86 | 0.015 | 0.0092 |  | 0.0067 | 4.26
10 | C[C@H]1C(=O)N2CCCc3nc(NCc4ccc(Oc5ccc(C(F)(F)F)nc5)cc4)nc(c32)N1C [101 (W213)] |  | 6.98 | 0.047 | 0.086 |  | 0.073 | 3.93
11 | C[C@H]1CCn2ccc3nc(NCc4cnn(Cc5ccc(F)cc5)c4)nc(c32)N1C [63 (W22)] |  | 2.59 | 0.023 | 0.0146 |  | 0.0363 | 3.04
12 | C[C@H]1Cn2ccc3nc(NCc4ccc(OCC(F)(F)F)nc4)nc(c32)N1C [82 (W107)] | 0.001 | 1.44 | 0.006 | 0.0124 |  | 0.011 | 1.83
13 | COC[C@H]1C(=O)N2CCCc3nc(NCc4ccc(Oc5ccc(C(F)(F)F)nc5)nc4)nc(c32)N1C [106 (W190), (S)-5-(methoxymethyl)-4-methyl-2-(((6-((6-(trifluoromethyl)pyridin-3-yl)oxo)pyridin-3-yl)methyl)amino)-4,5,9,10-tetrahydro-6H,8H-pyrido[3,2,1-de]pteridin-6-one] |  | > 10 | 0.054 | 0.03 |  | 0.046 | > 10

Now from value to molecule, other results behind:

Row | IC50 (HepG2) [µM] | IC50 (Hela) [µM] | IC50 [1] [µM] | IC50 (Colo205) [µM] | IC50 (NCI-H929) [µM] | SMILES | IC50 (DU4475) [µM] | IC50 (RKO) [µM]
14 | 0.0031 | > 10 | 0.004 | 0.0034 | 0.027 | CC(C)[C@H]1C(=O)N2CCCc3nc(NCc4ccc(Oc5ccc(C(F)(F)F)nc5)nc4)nc(c32)N1C [117 (W237), (S)-5-isopropyl-4-methyl-2-(((6-((6-(trifluoromethyl)pyridin-3-yl)oxo)pyridin-3-yl)methyl)amino)-4,5,9,10-tetrahydro-6H,8H-pyrido[3,2,1-de]pteridin-6-one] | 0.0082 | > 10
15 |  | > 10 | 0.027 | 0.029 |  | FC(F)(F)c1ccc(Cn2cc(CNc3nc4c5c(ccn5C[C@@H]5COCCN45)n3)cn2)cn1 [Example 28, (R)—N-((1-((6-(trifluoromethyl)pyridin-3-yl)methyl)-1H-pyrazol-4-yl)methyl)-7a,8,10,11-tetrahydro-7H-[1,4]oxazino[3,4-h]pyrrolo[3,2,1-de]pteridin-2-amine] | 0.034 | > 10
16 |  | > 10 | 0.013 | 0.009 |  | [2H]C1([2H])[C@H](COC)N(C)c2nc(NCc3cnn(Cc4ccc(C(F)(F)F)nc4)c3)nc3ccn1c23 [Example 24, (R)-5-(methoxymethyl)-4-methyl-N-((1-((6-(trifluoromethyl)pyridin-3-yl)methyl)-1H-pyrazole-4-yl)methyl)-5,6-dihydro-4H-pyrrolo[3,2,1-de]pteridin-6,6-d2-2-amine] | 0.0097 | > 10
17 |  | > 10 | 0.03 | 0.097 |  | C[C@H]1CN(C)c2nc(NCc3cnn(Cc4ccc(C(F)(F)F)nc4)c3)nc3cc(C(F)F)n1c23 [Example 21, (S)-8-(difluoromethyl)-4,6-dimethyl-N-((1-((6-(trifluoromethyl)pyridin-3-yl)methyl)-1H-pyridine Azol-4-yl)methyl)-5,6-dihydro-4H-pyrrolo[3,2,1-de]pteridin-2-amine] | 0.073 | 3.03
18 |  | > 10 | 0.053 | 0.041 |  | C[C@H]1C(=O)N2CCCc3nc(NCc4cnn(Cc5ccc(F)cc5)c4)nc(c32)N1C [Example 15, (S)-2-(((1-(4-fluorobenzyl)-1H-pyrazol-4-yl)methyl)amino)-4,5-dimethyl-4,5,9,10-tetrahydro-6H,8H-pyrido[3,2,1-de]pteridin-6-one] | 0.044 | > 10
19 |  | > 10 | 0.019 | 0.035 |  | CN1CC(F)(F)Cn2ccc3nc(NCc4cnn(Cc5ccc(C(F)(F)F)nc5)c4)nc1c32 [Example 26, 8,8-difluoro-6-methyl-N-((1-((6-(trifluoromethyl)pyridin-3-yl)methyl)-1H-pyrazol-4-yl)methyl)-6,7,8,9-tetrahydro-3,5,6,9a-tetraazabenzo[cd]azulene-4-amine] | 0.028 | > 10
20 |  | > 10 | 0.01 | 0.022 |  | C[C@H]1Cn2c(C(F)F)cc3nc(NCc4cnn(Cc5ccc(C(F)(F)F)nc5)c4)nc(c32)N1C [Example 22, (S)-8-(difluoromethyl)-4,5-dimethyl-N-((1-((6-(trifluoromethyl)pyridin-3-yl)methyl)-1H-pyridine Azol-4-yl)methyl)-5,6-dihydro-4H-pyrrolo[3,2,1-de]pteridin-2-amine] | 0.019 | 5.42
21 |  | > 10 | 0.026 | 0.076 |  | C[C@@H]1CN(C)c2nc(NCc3cnn(Cc4ccc(C(F)(F)F)nc4)c3)nc3ccn1c23 [Example 27, (R)-4,6-dimethyl-N-((1-((6-(trifluoromethyl)pyridin-3-yl)methyl)-1H-pyrazol-4-yl)methyl)-5,6-dihydro-4H-pyrrolo[3,2,1-de]pteridin-2-amine] | 0.037 | 4.43
22 |  | > 10 | 0.009 | 0.008 |  | C[C@H]1CN(C)c2nc(NCc3cnn(Cc4ccc(C(F)(F)F)nc4)c3)nc3ccn1c23 [Example 19, (S)-4,6-dimethyl-N-((1-((6-(trifluoromethyl)pyridin-3-yl)methyl)-1H-pyrazol-4-yl)methyl)-5,6-dihydro-4H-pyrrolo[3,2,1-de]pteridin-2-amine] | 0.009 | > 10
